Data from the NIST ThermoML archive (doi:10.1016/j.fluid.2012.07.032).
± gives the expanded uncertainty stated by the source.

How the values were obtained:
[1] = 101.33 kPa, Liquid, Vibrating tube method
[2] = refractive index (Na D-line) (dimensionless); conditions: 101.33 kPa, Liquid, Standard Abbe refractometry

mass density ([1]; 288.2 K) | mass density ([1]; 303.2 K) | mass density ([1]; 318.2 K) | refractive index ([2]; 288.2 K) | refractive index ([2]; 303.2 K) | refractive index ([2]; 318.2 K) | Structure (SMILES)
813.82 ± 0.14 kg/m3 | 802.407 ± 0.14 kg/m3 | 790.724 ± 0.15 kg/m3 | 1.4013 ± 0.0004 | 1.3952 ± 0.0004 | 1.3892 ± 0.0004 | CCCCO [butan-1-ol]
906.89 ± 0.11 kg/m3 | 888.196 ± 0.12 kg/m3 | 869.522 ± 0.12 kg/m3 | 1.3749 ± 0.0004 | 1.3672 ± 0.0004 | 1.3594 ± 0.0004 | CCOC(C)=O [ethyl acetate]
894.325 ± 0.082 kg/m3 | 877.529 ± 0.089 kg/m3 | 860.512 ± 0.095 kg/m3 | 1.3866 ± 0.0004 | 1.3792 ± 0.0004 | 1.3717 ± 0.0004 | CCCOC(C)=O [propyl ethanoate]

Further lines, the compound ahead of its results:

Structure (SMILES) | mass density ([1]; 288.2 K) | mass density ([1]; 303.2 K) | mass density ([1]; 318.2 K) | refractive index ([2]; 288.2 K) | refractive index ([2]; 303.2 K) | refractive index ([2]; 318.2 K)
O=Cc1ccco1 [2-furaldehyde] | 1165.24 ± 0.37 kg/m3 | 1149.77 ± 0.35 kg/m3 | 1133.83 ± 0.34 kg/m3 | 1.528 ± 0.0004 | 1.5206 ± 0.0004 | 1.5133 ± 0.0004
O [water] |  |  |  | 1.3334 ± 0.0004 | 1.3319 ± 0.0004 | 1.3298 ± 0.0004
